Assay results from US10226451B2, “Substituted bicyclic compounds as bromodomain inhibitors” (ZENITH EPIGENETICS LTD, priority 2013, dated 2019).

Legend:
[1] = tested on: hIL-6 mRNA in U937 cells; test: Inhibition of hIL-6 mRNA transcription in LPS-stimulated U937 cells; format: cell-based; conditions: Homo sapiens, U-937, PMA-differentiated U937 cells, LPS 1 ug/mL, 3 h, read-out: IL-6 activity
Protocol: In this example, hIL-6 mRNA in tissue culture cells were quantitated to measure the transcriptional inhibition of hIL-6 when treated with a compound of the present disclosure.
Human leukemic monocyte lymphoma U937 cells (CRL-1593.2) were plated at a density of 3.2×10^4 cells per well in a 96-well plate in 100 μL RPMI-1640 containing 10% FBS and penicillin/streptomycin, and differentiated into macrophages for 3 days in 60 ng/mL PMA ([…]) at 37° C. in 5% CO2 prior to the addition of compound. The cells were pretreated for 1 h with increasing concentrations of test compound in 0.1% DMSO prior to stimulation with 1 ug/mL lipopolysaccharide from Escherichia coli. Triplicate wells were used for each concentration. The cells were incubated at 37° C., 5% CO2 for 3 h before the cells were harvested. At time of harvest, media was removed and cells were rinsed in 200 μL PBS. Cells were harvested using the mRNA Catcher PLUS kit according to manufacturer's instructions. The eluted mRNA was then used in a one-step quantitative real-time PCR reaction using components of the RNA UltraSense™ One-Step Kit (Life Technologies) together with Applied Biosystems TaqMan® primer-probes for hIL-6 and Cyclophilin. Real-time PCR plates were run on a ViiA™7 real time PCR machine (Applied Biosystems), data was analyzed, normalizing the Ct values for hIL-6 to an internal control, prior to determining the fold expression of each sample, relative to the control.

[2] = tested on: Human AML MV-4-11 cells; test: Inhibition of cell proliferation in MV4-11 cells (CellTiter Aqueous One); format: cell-based; conditions: 72 h
Protocol: In this example, cell titer in MV4-11 cells were quantitated to measure the inhibition of proliferation when treated with a compound of the present disclosure.
MV4-11 cells (CRL-9591) were plated at a density of 5×10^4 cells per well in 96 well flat bottom plates and treated with increasing concentrations of test compound or DMSO (0.1%) in IMDM media containing 10% FBS and penicillin/streptomycin. Triplicate wells were used for each concentration and a well containing only media was used as a control. Plates were incubated at 37° C., 5% CO2 for 72 h before adding 20 μL of the CellTiter Aqueous One Solution (Promega) to each well and incubated at 37° C., 5% CO2 for an additional 3-4 h. The absorbance was read at 490 nm in a spectrophotometer and the percentage of cell titer relative to DMSO-treated cells was calculated after correcting for background by subtracting the blank well's signal. IC50 values were calculated using the Graph Pad Prism software.

[3] = tested on: c-myc in Human AML MV4-11 cells; test: Inhibition of c-MYC expression (mRNA, real-time PCR) in MV4-11 cells; format: cell-based; conditions: 3 h, mRNA by real-time PCR
Protocol: MV4-11 cells (CRL-9591) were plated at a density of 2.5×10^4 cells per well in 96 well U-bottom plates and treated with increasing concentrations of test compound or DMSO (0.1%) in IMDM media containing 10% FBS and penicillin/streptomycin, and incubated for 3 h at 37° C. Triplicate wells were used for each concentration. Cells were pelleted by centrifugation and harvested using the mRNA Catcher PLUS kit according to manufacturer's instructions. The eluted mRNA isolated was then used in a one-step quantitative real-time PCR reaction, using components of the RNA UltraSense™ One-Step Kit (Life Technologies) together with Applied Biosystems TaqMan® primer-probes for cMYC and Cyclophilin. Real-time PCR plates were run on a ViiA™7 real time PCR machine (Applied Biosystems), data was analyzed, normalizing the Ct values for hMYC to an internal control, prior to determining the fold expression of each sample, relative to the control.

[4] = molecular target: T1, Brd4 bromodomain 1 (BRD4(1)) (Homo sapiens, UniProt O60885); test: Inhibition of tetra-acetylated histone H4 binding to Brd4 bromodomain 1 (HTRF/FRET); conditions: tetra-acetylated histone H4 peptide, His-tagged bromodomain 200 nM, 2 h
T1 construct: made in house; host or cells: E. coli BL21(DE3)
Protocol: Proteins were cloned and overexpressed with a N-terminal 6×His tag, then purified by nickel affinity followed by size exclusion chromatography. Briefly, E. coli BL21(DE3) cells were transformed with a recombinant expression vector encoding N-terminally Nickel affinity tagged bromodomains from Brd2, Brd3, Brd4. Cell cultures were incubated at 37° C. with shaking to the appropriate density and induced overnight with IPTG. The supernatant of lysed cells was loaded onto Ni-IDA column for purification. Eluted protein was pooled, concentrated and further purified by size exclusion chromatography. Fractions representing monomeric protein were pooled, concentrated, aliquoted, and frozen at −80° C. for use in subsequent experiments.
Binding of tetra-acetylated histone H4 and BET bromodomains was confirmed by a Homogenous Time Resolved Fluorescence Resonance Energy Transfer (HTRF®) method. N-terminally His-tagged bromodomains (200 nM) and biotinylated tetra-acetylated histone H4 peptide (25-50 nM, Millipore) were incubated in the presence of Europium Cryptate-labeled streptavidin (Cisbio Cat. #610SAKLB) and XL665-labeled monoclonal anti-His antibody (Cisbio Cat. #61HISXLB) in a white 96 well microtiter plate (Greiner). For inhibition assays, serially diluted test compound was added to these reactions in a 0.2% final concentration of DMSO. Duplicate wells were used for each concentration tested. Final buffer concentrations were 30 mM HEPES pH 7.4, 30 mM NaCl, 0.3 mM CHAPS, 20 mM phosphate pH 7.0, 320 mM KF, 0.08% BSA. After a 2 h incubation at room temperature, fluorescence was measured at 665 and 620 nm with a SynergyH4 plate reader (Biotek). The binding inhibitory activity was shown by a decrease in 665 nm relative to 620 nm fluorescence. IC50 values were determined from a dose response curve.

[5] = tested on: hIL-17 mRNA in human peripheral blood mononuclear cells; test: Inhibition of hIL-17 mRNA transcription in OKT3-stimulated PBMC; format: cell-based; conditions: OKT3 antibody, 6 h, read-out: IL-17 activity
Protocol: In this example, hIL-17 mRNA in human peripheral blood mononuclear cells were quantitated to measure the transcriptional inhibition of hIL-17 when treated with a compound of the present disclosure.
Human peripheral blood mononuclear cells were plated (2.0×10^5 cells per well) in a 96-well plate in 45 μL OpTimizer T Cell expansion media (Life Technologies) containing 20 ng/ml IL-2 and penicillin/streptomycin. The cells were treated with increasing concentrations of the test compound or DMSO (0.1%), and incubated at 37° C., 5% CO2 for 1 h before addition of 10× stock OKT3 antibody at 10 ug/ml in media. Triplicate wells were used for each concentration. Cells were incubated at 37° C., 5% CO2 for 6 h before the cells were harvested. At time of harvest, cells were pelleted by centrifugation at 800 rpm for 5 min. Cells were harvested using the mRNA Catcher PLUS kit according to manufacturer's instructions. The eluted mRNA was then used in a one-step quantitative real-time PCR reaction, using components of the RNA UltraSense™ One-Step Kit (Life Technologies) together with Applied Biosystems TaqMan® primer-probes for hIL-17 and Cyclophilin. Real-time PCR plates were run on a ViiA™7 real time PCR machine (Applied Biosystems), data was analyzed, normalizing the Ct values for hIL-17 to an internal control, prior to determining the fold induction of each unknown sample, relative to the control.

Row | SMILES | IC50 [1] [nM] | IC50 [2] [nM] | IC50 [3] [nM] | IC50 [4] [nM] | IC50 [5] [nM]
1 | Cc1noc(CO)c1-c1cc(-c2c(C)nn(C)c2C)c2c(c1)[nH]c(=O)n2C [Example Compound 28, 5-(5-(hydroxymethyl)-3-methylisoxazol-4-yl)-1-methyl-7-(1,3,5-trimethyl-1H-pyrazol-4-yl)-1H-benzo[d]imidazol-2(3H)-one] | 300 to 3000 | 300 to 3000 | 300 to 3000 | ≤ 300 | 300 to 3000
2 | Cc1cnsc1-c1cc(-c2c(C)noc2C)cc2[nH]c(=O)n(C)c12 [Example Compound 10, 5-(3,5-dimethylisoxazol-4-yl)-1-methyl-7-(4-methylisothiazol-5-yl)-1H-benzo[d]imidazol-2(3H)-one] | ≤ 300 | ≤ 300 | ≤ 300 | ≤ 300 | ≤ 300
3 | Cc1noc(C)c1-c1cc(-c2ccc(F)cc2C(F)(F)F)c2c(c1)[nH]c(=O)n2C [Example Compound 11, 5-(3,5-dimethylisoxazol-4-yl)-7-(4-fluoro-2-(trifluoromethyl)phenyl)-1-methyl-1H-benzo[d]imidazol-2(3H)-one] | 300 to 3000 | 300 to 3000 | 300 to 3000 | 300 to 3000 | ≤ 300
4 | Cc1n[nH]c(C)c1-c1cc(-c2c(C)noc2C)cc2[nH]c(=O)n(C)c12 [Example Compound 21, 7-(3,5-dimethyl-1H-pyrazol-4-yl)-5-(3,5-dimethylisoxazol-4-yl)-1-methyl-1H-benzo[d]imidazol-2(3H)-one] | ≤ 300 | ≤ 300 | ≤ 300 | ≤ 300 | ≤ 300

Second part, the compound after the results:

Row | IC50 [1] [nM] | IC50 [2] [nM] | IC50 [3] [nM] | IC50 [4] [nM] | IC50 [5] [nM] | SMILES
5 | ≤ 300 | 300 to 3000 | 300 to 3000 | ≤ 300 | ≤ 300 | COc1ccc(F)cc1-c1cc(-c2c(C)noc2C)cc2[nH]c(=O)n(C)c12 [Example Compound 18, 5-(3,5-dimethylisoxazol-4-yl)-7-(5-fluoro-2-methoxyphenyl)-1-methyl-1H-benzo[d]imidazol-2(3H)-one]
6 | ≤ 300 | ≤ 300 | ≤ 300 | ≤ 300 | ≤ 300 | Cc1noc(C)c1-c1cc(-c2cccc(C(N)=O)c2C)c2c(c1)[nH]c(=O)n2C [Example Compound 30, 3-(6-(3,5-dimethylisoxazol-4-yl)-3-methyl-2-oxo-2,3-dihydro-1H-benzo[d]imidazol-4-yl)-2-methylbenzamide]
7 | ≤ 300 | ≤ 300 | ≤ 300 | ≤ 300 | ≤ 300 | Cc1noc(C)c1-c1cc(-c2c(C)nn(C)c2C)c2[nH]c(=O)[nH]c2c1 [Example Compound 22, 6-(3,5-dimethylisoxazol-4-yl)-4-(1,3,5-trimethyl-1H-pyrazol-4-yl)-1H-benzo[d]imidazol-2(3H)-one]
8 | ≤ 300 | 300 to 3000 | ≤ 300 | ≤ 300 | ≤ 300 | Cc1noc(C)c1-c1cc(-c2c(C)noc2C)c2c(c1)[nH]c(=O)n2C [Example Compound 2, 5,7-bis(3,5-dimethylisoxazol-4-yl)-1-methyl-1H-benzo[d]imidazol-2(3H)-one]
